{
  "source": "patent US11229643B2",
  "about": "“Combinations of FGFR4 inhibitors and bile acid sequestrants” (NOVARTIS AG, priority 2016, dated 2022)",
  "key": {"[1]": {"test": "4-week dog study, ALT and AST", "assay_type": "in vivo", "description": "The maximal increase was 6-fold and ≤2-fold for ALT and AST respectively (relative to pre-dose values), and occurred during week 2 of the study. Generally, there was no further increase in transaminase levels despite continued dosing over the 4-weeks indicating a level of adaptation to these pharmacologically mediated effects."}, "[2]": {"test": "Dog cross-over study of Compound A with or without cholestyramine: serum ALT activity", "assay_type": "in vivo, Beagle dogs", "settings": "Cpd A 5 mg/kg/day", "protocol": "Male Beagle dogs were obtained from Marshall BioResources (North Rose, N.Y.). For the study, all animals were nave to treatment. All animals used in the study were healthy and suitable for use. The dose volume for Cpd A and its vehicle was 5 mL/kg. For CHO, the dosing aliquot was dispersed in 75 mL total animal drinking water.\nFor the study, a dosing paradigm was followed with initial loading dose of either vehicle or CHO on the last day of pretest (day −1), and dosing of either vehicle or CHO on days 1-7.\nN-(5-cyano-4-((2-methoxyethyl)amino)pyridin-2-yl)-7-formyl-6-((4-methyl-2-oxopiperazin-1-yl)methyl)-3,4-dihydro-1,8-naphthyridine-1(2H)-carboxamide dosing was initiated on day 8, with the second dosing event of each day for either vehicle or CHO. Food was presented to the animals after the second daily dosing event. Animals were not dosed on day 15. Dosing was restarted on day 24 and the dose groups crossed over on day 38-44, with the last day of dosing on day 44.\nClinical observations, twice-weekly body weights, and daily food consumption determinations were performed.\nFecal samples were collected for bile acid (BA) analysis once during pretest and on days 7, 10, 14, 17, 24, 28, 35, 42, and 49.\nPlasma was collected from all animals for bile acid profiling during the study, concurrent with clinical pathology and/or toxicokinetic sampling as follows: at approximately 3 hours postdose (post vehicle, CHO or Cpd A, as appropriate) on days 1, 3, 7, 8, 11, 14, 15, 18, 21, 23, 25, 28, 31, 35, 38, 42, 45, 49, and 52. On days 8, 14, 25, and 39 only, samples were collected at predose and approximately 0.5, 1, 3, 7, and 24 hours postdose (post Cpd A dosing). In addition, on day 44, bile acid biomarker samples were collected at 3, 7, and 24 hours postdose (concurrent with the last toxicokinetic blood collection)."}, "[3]": {"test": "Dog cross-over study: plasma miR-122 levels (Taqman, standard curve method)", "assay_type": "in vivo, Beagle dogs", "protocol": "Plasma miR-122 levels, a liver enriched microRNA used as biomarker of liver injury (Starkey Lewis P J et al., Clin Pharmacol Ther, 2012, 291-293), were determined. miR-122 is considered as a liver-specific marker.\nSmall RNA was extracted from 50 μl of plasma by using the miRNeasy/MinElute kit and following the instructions of the manufacturer (Qiagen). Elution of small RNA was realized in 14 μl of nucleic acid-free H2O.\n3.2 μl of eluted small RNA was reverse transcribed into cDNA by using the Megaplex RT primer human pool A and B and the Taqman MicorRNA Reverse Transcription kit (Applied Biosystems/Life Technologies, reference 4366596) and following the instructions of the manufacturer.\n2.5 μl of cDNA was preamplified by using the Megaplex Preamp primer human pool A and B (Applied Biosystems/Life Technologies, reference 4399201 and 4399233) and the Taqman PreAmp Master mix (Applied Biosystems/Life Technologies, reference 4391128) and following the instructions of the manufacturer.\nmicroRNA miR-122 was amplified from preamplified cDNA by using a commercially available validated Taqman assay (reference 002245) diluted in the Taqman MasterMixII (Applied Biosystems/Life Technologies) and following the instructions of the manufacturer.\nThe relative quantification of plasmatic microRNA levels was performed using the standard curve method to generate expression values as number of molecules.\nStatistical significance of mRNA measurements was assessed using the two-sample unequal variance, two-tailed distribution (hetero-scedastic Student's t-test, Excel). Coefficients of variation with a P value <0.05 were considered to be statistically significant."}, "456 kinases": {"tested_on": "456 kinases", "settings": "cited from earlier work"}, "advanced HCC": {"tested_on": "advanced HCC", "settings": "patients with advanced HCC; cited from earlier work"}, "[4]": {"settings": "relative to pre-dose values, during week 2 of 4-week dog study"}},
  "data": [
    {"smiles": "COCCNc1cc(NC(=O)N2CCCc3cc(CN4CCN(C)CC4=O)c(C=O)nc32)ncc1C#N", "note": "[Compound A, N-(5-cyano-4-((2-methoxyethyl)amino)pyridin-2-yl)-7-formyl-6-((4-methyl-2-oxopiperazin-1-yl)methyl)-3,4-dihydro-1,8-naphthyridine-1(2H)-carboxamide]", "values": [
      {"measurement": "recovery of ALT/AST increases evident", "setting": "[1]; day following cessation of Compound A administration", "value": "≤ 8", "unit": "days"},
      {"measurement": "maximal increase in ALT", "setting": "[1]; [4]", "value": 6, "unit": "fold"},
      {"measurement": "maximal increase in AST", "setting": "[1]; [4]", "value": "≤ 2", "unit": "fold"},
      {"measurement": "increase in serum ALT activity", "setting": "[2]; compared with pretest, first dosing period (from day 8)", "value": 3.5, "unit": "fold"},
      {"measurement": "change in serum ALT activity, in general", "setting": "[2]; dogs", "value": "minimal to moderate increases"},
      {"measurement": "increase in serum ALT activity", "setting": "[2]; following the first cross-over", "value": 6, "unit": "fold"},
      {"measurement": "increase in serum ALT activity", "setting": "[2]; following the second cross-over", "value": 3.5, "unit": "fold"},
      {"measurement": "increase in miR-122 levels, maximum average", "setting": "[3]; recovery period study day 15-23, at day 21, compared with study day 1-7", "value": "≤ 5.4", "unit": "fold"},
      {"measurement": "increase in miR-122 levels, peak", "setting": "[3]; recovery study days 45-52, Group 1 animal 1001, day 49", "value": "≤ 22.2", "unit": "fold"},
      {"measurement": "increase in miR-122 levels, peak", "setting": "[3]; recovery study days 45-52, Group 1 animal 1003, day 49", "value": "≤ 47.9", "unit": "fold"},
      {"measurement": "increase in miR-122 levels, peak", "setting": "[3]; recovery study days 45-52, Group 1 animal 1005, day 49", "value": "≤ 16.4", "unit": "fold"},
      {"measurement": "increase in miR-122 levels, peak", "setting": "[3]; recovery study days 45-52, Group 1 animal 1006, day 49", "value": "≤ 40.1", "unit": "fold"},
      {"measurement": "change in miR122 compared to respective controls, overall", "setting": "[3]; some animals", "value": "minimal to moderate increases"},
      {"measurement": "increase in miR-122 levels, maximum average", "setting": "[3]; study day 8-14, at day 14, compared with study day 1-7", "value": "≤ 2.5", "unit": "fold"},
      {"measurement": "increase in miR-122 levels, maximum", "setting": "[3]; study days 25-38, animal 2003, at day 38", "value": "≤ 151", "unit": "fold"},
      {"measurement": "increase in miR-122 levels, maximum average", "setting": "[3]; study days 25-38, animal 2006, at day 31", "value": "≤ 63", "unit": "fold"},
      {"measurement": "increase in miR-122 levels, average", "setting": "[3]; study days 39-42, following the second cross-over", "value": "≤ 7.8", "unit": "fold"},
      {"measurement": "targets found in kinome wide scan", "setting": "456 kinases", "value": "FGFR4 was the only target"},
      {"measurement": "clinical activity", "setting": "advanced HCC", "value": "promising clinical activity"}
    ]}
  ]
}
